Results as given in the supplement of paper PMC11208160.

Assay: recombinant UMI read abundance after kanamycin selection (control-corrected) (log10(CPM+1)); higher = more efficient recombination; extreme values may be limits of the assay; sequences stand for … in AGTGCAGAGAAAATCGGCCAGTTTTCTCTGCCTGCAGTCCGCATGCCGTGGGACCCCTTGGGTTCTAACCTGTTGCCTAGATTTATGCAGCGGACTGCCTTTCTCCCAAAGTGATAAACCGG…AGGTTGGTTTCACT; site = the 11-nt donor
Procedure, shortened: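 For the IS621 bridge recombinase, a pooled Escherichia coli screen tested donor and donor-binding-loop pairs. Cells received the pair library together with a target plasmid encoding a fixed target and T7-inducible recombinase, then went onto IPTG (0.07 mM) plus kanamycin or unselected plates in duplicate. After PCR across the donor–target junction and sequencing, recombinant UMI counts were normalized to CPM, averaged, and scaled by control-derived factors. Each value is given as log10(CPM+1).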

Row | Sequence | recombinant UMI read abundance (log10)
1 | CTAGTAACATGGACCGGTTTTCCCGGTAATCCGTATTTGAC (site CTAGTAACTGT) | 3.1
2 | CTAGTAACATGGACCGGTTTTCCCGGTAATCCGTATTTGAC (site CTAGTACCTGT) | 0
3 | CTAGTAACATGGACCGGTTTTCCCGGTAATCCGTATTTGAC (site CTAGTAGCTGT) | 2.73
4 | CTAGTAACATGGACCGGTTTTCCCGGTAATCCGTATTTGAC (site CTAGTATCTGT) | 1.83
5 | CTAGTCACATGGACCGGTTTTCCCGGTAATCCGTATTTGAC (site CTAGTATCTGT) | 0
6 | CTAGTCACATGGACCGGTTTTCCCGGTAATCCGTATTTGAC (site CTAGTCACTGT) | 2.59
7 | CTAGTTTCATGGACCGGTTTTCCCGGTAATCCGTATTTGAA (site CTAGTATCTGT) | 0
8 | CTAGTTTCATGGACCGGTTTTCCCGGTAATCCGTATTTGAA (site CTAGTTTCTTT) | 1.85
9 | CTAGTTTCATGGACCGGTTTTCCCGGTAATCCGTATTTGCC (site CTAGTATCTGT) | 0
10 | CTAGTTTCATGGACCGGTTTTCCCGGTAATCCGTATTTGCC (site CTAGTTTCTGG) | 2.53
11 | CTATAATCATGGACCGGTTTTCCCGGTAATCCGTATTTGCT (site CGATCATCTAG) | 0
12 | CTATAATCATGGACCGGTTTTCCCGGTAATCCGTATTTGCT (site CTATAATCTAG) | 3.13
13 | CTATATCCATGGACCGGTTTTCCCGGTAATCCGTATTTGAG (site CTATATCCTCT) | 1.41
14 | CTATCCTCATGGACCGGTTTTCCCGGTAATCCGTATTTGCT (site CGATCATCTAG) | 0
15 | CTATCCTCATGGACCGGTTTTCCCGGTAATCCGTATTTGCT (site CTATCCTCTAG) | 3.09
16 | CTATCCTCATGGACCGGTTTTCCCGGTAATCCGTATTTGTT (site CTATCCTCTAA) | 2.79
17 | CTATTAACATGGACCGGTTTTCCCGGTAATCCGTATTTGGA (site CTAATAACTTC) | 0.484

Row | Sequence | recombinant UMI read abundance (log10)
18 | CTATTAACATGGACCGGTTTTCCCGGTAATCCGTATTTGGA (site CTACTAACTTC) | 0.342
19 | CTATTAACATGGACCGGTTTTCCCGGTAATCCGTATTTGGA (site CTAGTAACTTC) | 0.397
20 | CTATTAACATGGACCGGTTTTCCCGGTAATCCGTATTTGGA (site CTATTAACTTC) | 1.64
21 | CTATTGGCATGGACCGGTTTTCCCGGTAATCCGTATTTGTA (site CTATTGGCTTA) | 1.84
22 | CTATTGTCATGGACCGGTTTTCCCGGTAATCCGTATTTGAC (site CTAGTATCTGT) | 0
23 | CTATTGTCATGGACCGGTTTTCCCGGTAATCCGTATTTGAC (site CTATTGTCTGT) | 0
24 | CTCAAAGCATGGACCGGTTTTCCCGGTAATCCGTATTTGCG (site CTCAAAGCTCG) | 0.762
25 | CTCAGCCCATGGACCGGTTTTCCCGGTAATCCGTATTTGCC (site CTCAGCCCTGG) | 0
26 | CTCAGCTCATGGACCGGTTTTCCCGGTAATCCGTATTTGAA (site CTCAGCTCTTT) | 2.08
27 | CTCATTCCATGGACCGGTTTTCCCGGTAATCCGTATTTGCT (site CTCATTCCTAG) | 0.523
28 | CTCCAAACATGGACCGGTTTTCCCGGTAATCCGTATTTGGC (site CTCCAAACTGC) | 0
29 | CTCCAACCATGGACCGGTTTTCCCGGTAATCCGTATTTGCC (site CTCCAACCTGG) | 0
30 | CTCCATGCATGGACCGGTTTTCCCGGTAATCCGTATTTGTC (site CTCCATGCTGA) | 2.3
31 | CTCCCGACATGGACCGGTTTTCCCGGTAATCCGTATTTGAG (site CTCCCAACTCT) | 0.849
32 | CTCCCGACATGGACCGGTTTTCCCGGTAATCCGTATTTGAG (site CTCCCCACTCT) | 0.00318
33 | CTCCCGACATGGACCGGTTTTCCCGGTAATCCGTATTTGAG (site CTCCCGACTCT) | 0.968
34 | CTCCCGACATGGACCGGTTTTCCCGGTAATCCGTATTTGAG (site CTCCCTACTCT) | 0.0167
